Laboratory results: PMC6591251, “Discovery of potent necroptosis inhibitors targeting RIPK1 kinase activity for the treatment of inflammatory disorder and cancer metastasis” (Cell Death & Disease, 2019)

Tests used:
Assay in all cases: RBC kinase panel
Format in all cases: biochemical
CAMK2b = molecular target: T1, CAMK2b (Homo sapiens, UniProt Q13554); details: ATP 10 μM, Data1, Data2
T1 construct: purchased Reaction Biology Corporation
How it was run: (§1)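 Using 10 μM ATP for every kinase, activity of 369 human kinases was measured in duplicate in the presence of 1 μM test compound.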

IRR/INSRR = molecular target: T2, IRR/INSRR (Homo sapiens, UniProt P14616); details: ATP 10 μM, Data1, Data2
T2 construct: purchased Reaction Biology Corporation
How it was run: as §1

LIMK2 = molecular target: T3, LIMK2 (Homo sapiens, UniProt P53671)
T3 construct: purchased Reaction Biology Corporation
T3 sequence (P53671 whole entry): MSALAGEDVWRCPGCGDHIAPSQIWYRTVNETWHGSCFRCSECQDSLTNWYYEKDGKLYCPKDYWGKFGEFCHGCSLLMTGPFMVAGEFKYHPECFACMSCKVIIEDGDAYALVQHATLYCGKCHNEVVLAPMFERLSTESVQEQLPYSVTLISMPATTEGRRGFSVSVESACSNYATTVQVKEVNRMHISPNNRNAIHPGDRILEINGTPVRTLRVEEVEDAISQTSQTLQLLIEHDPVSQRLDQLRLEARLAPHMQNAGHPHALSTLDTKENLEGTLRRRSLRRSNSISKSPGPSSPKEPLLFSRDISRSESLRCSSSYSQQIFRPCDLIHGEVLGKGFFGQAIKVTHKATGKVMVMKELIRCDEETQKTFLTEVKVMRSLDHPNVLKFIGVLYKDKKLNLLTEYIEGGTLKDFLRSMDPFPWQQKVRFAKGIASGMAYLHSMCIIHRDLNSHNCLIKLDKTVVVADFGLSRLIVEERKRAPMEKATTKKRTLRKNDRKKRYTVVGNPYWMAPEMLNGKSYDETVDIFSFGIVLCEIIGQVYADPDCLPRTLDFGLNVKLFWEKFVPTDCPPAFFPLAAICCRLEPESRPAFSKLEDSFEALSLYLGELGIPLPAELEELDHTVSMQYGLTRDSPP
How it was run: as §1

MLK4 = molecular target: T4, MLK4 (Homo sapiens, UniProt Q5TCX8); details: ATP 10 μM, Data1, Data2
T4 construct: purchased Reaction Biology Corporation
How it was run: as §1

MRCKa/CDC42BPA = molecular target: T5, MRCKa/CDC42BPA (Homo sapiens, UniProt Q5VT25); details: ATP 10 μM, Data1, Data2
T5 construct: purchased Reaction Biology Corporation
How it was run: as §1

OSR1/OXSR1 = molecular target: T6, OSR1/OXSR1 (Homo sapiens, UniProt O95747); details: ATP 10 μM, Data1, Data2
T6 construct: purchased Reaction Biology Corporation
How it was run: as §1

CK2a = molecular target: T7, CK2a (Homo sapiens, UniProt P68400); details: ATP 10 μM, Data1, Data2
T7 construct: purchased Reaction Biology Corporation
How it was run: as §1

IRAK4 = molecular target: T8, IRAK4 (Homo sapiens, UniProt Q9NWZ3); details: ATP 10 μM, Data1, Data2
T8 construct: purchased Reaction Biology Corporation
How it was run: as §1

ERBB4/HER4 = molecular target: T9, ERBB4/HER4 (Homo sapiens, UniProt Q15303); details: ATP 10 μM, Data1, Data2
T9 construct: purchased Reaction Biology Corporation
T9 sequence (Q15303 26-1308): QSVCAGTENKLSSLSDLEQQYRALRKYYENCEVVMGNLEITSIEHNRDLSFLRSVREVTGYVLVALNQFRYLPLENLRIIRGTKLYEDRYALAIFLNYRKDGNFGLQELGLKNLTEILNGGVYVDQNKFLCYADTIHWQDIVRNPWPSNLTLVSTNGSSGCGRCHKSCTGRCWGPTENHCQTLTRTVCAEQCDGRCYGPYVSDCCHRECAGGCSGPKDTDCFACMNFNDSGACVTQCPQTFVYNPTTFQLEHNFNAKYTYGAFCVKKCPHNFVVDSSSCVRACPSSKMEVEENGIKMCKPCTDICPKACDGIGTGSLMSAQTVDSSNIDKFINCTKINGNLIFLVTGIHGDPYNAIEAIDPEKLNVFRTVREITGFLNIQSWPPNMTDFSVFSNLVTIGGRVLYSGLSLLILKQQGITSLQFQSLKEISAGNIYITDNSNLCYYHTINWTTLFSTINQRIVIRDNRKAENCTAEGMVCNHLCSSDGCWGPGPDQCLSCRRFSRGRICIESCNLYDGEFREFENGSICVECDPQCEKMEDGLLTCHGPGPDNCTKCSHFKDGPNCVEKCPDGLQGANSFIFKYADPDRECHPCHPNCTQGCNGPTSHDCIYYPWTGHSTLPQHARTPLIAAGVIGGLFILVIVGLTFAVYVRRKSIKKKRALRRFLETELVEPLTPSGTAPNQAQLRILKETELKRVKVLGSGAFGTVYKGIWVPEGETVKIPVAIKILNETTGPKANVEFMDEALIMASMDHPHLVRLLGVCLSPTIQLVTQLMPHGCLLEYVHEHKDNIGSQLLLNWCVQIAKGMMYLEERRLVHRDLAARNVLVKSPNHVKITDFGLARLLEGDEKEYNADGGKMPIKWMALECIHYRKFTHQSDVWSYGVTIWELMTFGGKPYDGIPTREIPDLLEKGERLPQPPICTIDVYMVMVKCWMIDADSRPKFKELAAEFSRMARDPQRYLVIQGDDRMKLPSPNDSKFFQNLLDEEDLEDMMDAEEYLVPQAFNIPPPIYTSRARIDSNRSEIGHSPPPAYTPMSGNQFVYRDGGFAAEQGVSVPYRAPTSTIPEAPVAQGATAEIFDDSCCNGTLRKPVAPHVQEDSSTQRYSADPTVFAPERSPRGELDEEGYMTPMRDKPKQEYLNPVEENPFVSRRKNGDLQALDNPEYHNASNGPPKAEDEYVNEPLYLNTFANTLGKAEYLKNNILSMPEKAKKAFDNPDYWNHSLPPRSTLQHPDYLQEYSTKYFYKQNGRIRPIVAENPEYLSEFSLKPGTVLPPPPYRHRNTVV
How it was run: as §1

PKCd = molecular target: T10, PKCd (Homo sapiens, UniProt Q05655); details: ATP 10 μM, Data1, Data2
T10 construct: purchased Reaction Biology Corporation
How it was run: as §1

LATS2 = molecular target: T11, LATS2 (Homo sapiens, UniProt Q9NRM7); details: ATP 10 μM, Data1, Data2
T11 construct: purchased Reaction Biology Corporation
How it was run: as §1

CDK18/cyclin Y (PCTK3) = molecular target: T12, CDK18/cyclin Y (PCTK3) (Homo sapiens, UniProt Q07002); details: ATP 10 μM, Data1, Data2
T12 construct: purchased Reaction Biology Corporation
T12 sequence (Q07002 whole entry): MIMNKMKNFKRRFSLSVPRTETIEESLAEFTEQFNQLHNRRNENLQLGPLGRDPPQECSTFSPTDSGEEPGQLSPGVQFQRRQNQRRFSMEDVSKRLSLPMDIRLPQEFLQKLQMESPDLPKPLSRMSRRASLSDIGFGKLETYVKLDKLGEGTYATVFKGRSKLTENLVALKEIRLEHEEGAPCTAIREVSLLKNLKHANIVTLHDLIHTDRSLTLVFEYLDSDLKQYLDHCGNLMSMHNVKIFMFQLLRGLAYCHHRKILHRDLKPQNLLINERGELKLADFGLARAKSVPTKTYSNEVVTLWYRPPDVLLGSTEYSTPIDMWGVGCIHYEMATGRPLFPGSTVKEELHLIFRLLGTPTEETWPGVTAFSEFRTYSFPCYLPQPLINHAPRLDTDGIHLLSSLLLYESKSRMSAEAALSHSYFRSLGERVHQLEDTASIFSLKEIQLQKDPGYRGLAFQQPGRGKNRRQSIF
T12 sequence (Q8ND76 whole entry partner): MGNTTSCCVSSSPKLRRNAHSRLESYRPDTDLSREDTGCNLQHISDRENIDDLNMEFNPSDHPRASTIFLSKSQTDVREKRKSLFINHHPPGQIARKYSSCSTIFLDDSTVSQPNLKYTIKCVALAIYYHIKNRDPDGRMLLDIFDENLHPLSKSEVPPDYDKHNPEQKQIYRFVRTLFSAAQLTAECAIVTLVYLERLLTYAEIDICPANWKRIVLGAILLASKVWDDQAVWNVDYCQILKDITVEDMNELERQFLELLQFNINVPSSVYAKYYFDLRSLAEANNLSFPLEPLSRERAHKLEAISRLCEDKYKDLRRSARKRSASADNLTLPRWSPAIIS
How it was run: as §1

AXL = molecular target: T13, AXL (Homo sapiens, UniProt P30530); details: ATP 10 μM, Data1, Data2
T13 construct: purchased Reaction Biology Corporation
How it was run: as §1

CK1a1 = molecular target: T14, CK1a1 (Homo sapiens, UniProt P48729); details: ATP 10 μM, Data1, Data2
T14 construct: purchased Reaction Biology Corporation
How it was run: as §1

NEK2 = molecular target: T15, NEK2 (Homo sapiens, UniProt P51955); details: ATP 10 μM, Data1, Data2
T15 construct: purchased Reaction Biology Corporation
How it was run: as §1

NEK7 = molecular target: T16, NEK7 (Homo sapiens, UniProt Q8TDX7); details: ATP 10 μM, Data1, Data2
T16 construct: purchased Reaction Biology Corporation
How it was run: as §1

PAK3 = molecular target: T17, PAK3 (Homo sapiens, UniProt O75914); details: ATP 10 μM, Data1, Data2
T17 construct: purchased Reaction Biology Corporation
How it was run: as §1

LCK = molecular target: T18, LCK (Homo sapiens, UniProt P06239); details: ATP 10 μM, Data1, Data2
T18 construct: purchased Reaction Biology Corporation
How it was run: as §1

NEK1 = molecular target: T19, NEK1 (Homo sapiens, UniProt Q96PY6); details: ATP 10 μM, Data1, Data2
T19 construct: purchased Reaction Biology Corporation
How it was run: as §1

VRK2 = molecular target: T20, VRK2 (Homo sapiens, UniProt Q86Y07); details: ATP 10 μM, Data1, Data2
T20 construct: purchased Reaction Biology Corporation
How it was run: as §1

TESK1 = molecular target: T21, TESK1 (Homo sapiens, UniProt Q15569); details: ATP 10 μM, Data1, Data2
T21 construct: purchased Reaction Biology Corporation
How it was run: as §1

CAMK1a = molecular target: T22, CAMK1a (Homo sapiens, UniProt Q14012); details: ATP 10 μM, Data1, Data2
T22 construct: purchased Reaction Biology Corporation
How it was run: as §1

PAK1 = molecular target: T23, PAK1 (Homo sapiens, UniProt Q13153); details: ATP 10 μM, Data1, Data2
T23 construct: purchased Reaction Biology Corporation
How it was run: as §1

PKCg = molecular target: T24, PKCg (Homo sapiens, UniProt P05129); details: ATP 10 μM, Data1, Data2
T24 construct: purchased Reaction Biology Corporation
How it was run: as §1

DCAMKL1 = molecular target: T25, DCAMKL1 (Homo sapiens, UniProt O15075); details: ATP 10 μM, Data1, Data2
T25 construct: purchased Reaction Biology Corporation
How it was run: as §1

TYRO3/SKY = molecular target: T26, TYRO3/SKY (Homo sapiens, UniProt Q06418); details: ATP 10 μM, Data1, Data2
T26 construct: purchased Reaction Biology Corporation
How it was run: as §1

CK1g3 = molecular target: T27, CK1g3 (Homo sapiens, UniProt Q9Y6M4); details: ATP 10 μM, Data1, Data2
T27 construct: purchased Reaction Biology Corporation
How it was run: as §1

PEAK1 = molecular target: T28, PEAK1 (Homo sapiens, UniProt Q9H792); details: ATP 10 μM, Data1, Data2
T28 construct: purchased Reaction Biology Corporation
How it was run: as §1

PKCepsilon = molecular target: T29, PKCepsilon (Homo sapiens, UniProt Q02156); details: ATP 10 μM, Data1, Data2
T29 construct: purchased Reaction Biology Corporation
How it was run: as §1

FGFR4 = molecular target: T30, FGFR4 (Homo sapiens, UniProt P22455); details: ATP 10 μM, Data1, Data2
T30 construct: purchased Reaction Biology Corporation
T30 sequence (P22455 22-802): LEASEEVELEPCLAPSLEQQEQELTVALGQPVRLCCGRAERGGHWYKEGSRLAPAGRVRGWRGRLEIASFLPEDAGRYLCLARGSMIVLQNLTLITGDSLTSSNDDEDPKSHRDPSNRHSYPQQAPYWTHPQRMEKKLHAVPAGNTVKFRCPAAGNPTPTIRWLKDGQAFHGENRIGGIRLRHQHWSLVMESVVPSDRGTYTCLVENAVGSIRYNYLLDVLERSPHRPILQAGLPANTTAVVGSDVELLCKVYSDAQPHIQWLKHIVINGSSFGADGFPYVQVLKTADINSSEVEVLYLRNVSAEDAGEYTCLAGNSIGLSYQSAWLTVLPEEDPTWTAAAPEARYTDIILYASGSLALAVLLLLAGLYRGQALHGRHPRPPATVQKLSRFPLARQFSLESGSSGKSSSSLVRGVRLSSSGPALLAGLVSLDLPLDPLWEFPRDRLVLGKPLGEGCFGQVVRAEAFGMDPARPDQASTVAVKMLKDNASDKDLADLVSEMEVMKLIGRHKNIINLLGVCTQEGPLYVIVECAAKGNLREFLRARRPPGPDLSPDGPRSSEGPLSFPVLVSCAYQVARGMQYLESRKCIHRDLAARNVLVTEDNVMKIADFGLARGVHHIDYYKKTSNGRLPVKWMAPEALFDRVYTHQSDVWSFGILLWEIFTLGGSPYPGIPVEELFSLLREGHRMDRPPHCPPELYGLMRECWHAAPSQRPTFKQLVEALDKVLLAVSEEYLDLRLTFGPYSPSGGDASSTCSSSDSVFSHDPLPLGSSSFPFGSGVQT
How it was run: as §1

GRK6 = molecular target: T31, GRK6 (Homo sapiens, UniProt P43250); details: ATP 10 μM, Data1, Data2
T31 construct: purchased Reaction Biology Corporation
How it was run: as §1

p70S6Kb/RPS6KB2 = molecular target: T32, p70S6Kb/RPS6KB2 (Homo sapiens, UniProt Q9UBS0); details: ATP 10 μM, Data1, Data2
T32 construct: purchased Reaction Biology Corporation
How it was run: as §1

WEE1 = molecular target: T33, WEE1 (Homo sapiens, UniProt P30291); details: ATP 10 μM, Data1, Data2
T33 construct: purchased Reaction Biology Corporation
T33 sequence (P30291 whole entry): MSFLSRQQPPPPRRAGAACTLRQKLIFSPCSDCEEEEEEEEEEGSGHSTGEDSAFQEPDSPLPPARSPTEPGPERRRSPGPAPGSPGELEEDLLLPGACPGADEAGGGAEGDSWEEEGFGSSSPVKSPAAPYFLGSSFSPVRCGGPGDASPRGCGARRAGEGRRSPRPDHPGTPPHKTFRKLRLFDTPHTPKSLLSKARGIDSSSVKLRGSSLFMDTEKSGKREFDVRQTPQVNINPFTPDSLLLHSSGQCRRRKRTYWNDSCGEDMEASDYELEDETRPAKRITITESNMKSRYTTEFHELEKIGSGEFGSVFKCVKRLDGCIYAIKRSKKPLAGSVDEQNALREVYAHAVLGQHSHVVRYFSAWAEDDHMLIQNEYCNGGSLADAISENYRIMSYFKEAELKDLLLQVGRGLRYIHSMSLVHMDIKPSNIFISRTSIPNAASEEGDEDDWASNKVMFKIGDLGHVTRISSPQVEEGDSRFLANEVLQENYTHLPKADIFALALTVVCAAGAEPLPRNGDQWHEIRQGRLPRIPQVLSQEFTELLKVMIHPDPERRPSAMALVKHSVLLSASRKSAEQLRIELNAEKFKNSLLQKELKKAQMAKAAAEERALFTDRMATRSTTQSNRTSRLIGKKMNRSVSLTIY
How it was run: as §1

`CC(=O)Nc1nc2ccc(-c3cnc(C)c(NC(=O)OC4CCCCC4)c3)cc2s1` [PK68, cyclohexyl (5-(2-acetamidobenzo[d]thiazol-6-yl)-2-methylpyridin-3-yl)carbamate] was tested, and the Activity% (CAMK2b; 1 μM) was 99.42%, the activity at 1 µM (CAMK2b) was 102% and the Activity% (IRR/INSRR; 1 μM) was 96.94%. For the same molecule, the activity at 1 µM (IRR/INSRR) was 98%, the Activity% (LIMK2; 1 μM, ATP 10 μM, Data1, Data2) was 42.64% and the activity at 1 µM (LIMK2; 1 μM, ATP 10 μM, Data1, Data2) was 44%. For the same molecule, the inhibition at 1 µM (LIMK2; at 1000 nM) was over 50%, the Activity% (MLK4; 1 μM) was 104.45% and the activity at 1 µM (MLK4) was 107%. It also gave an Activity% (MRCKa/CDC42BPA; 1 μM) of 101.41%, an activity at 1 µM (MRCKa/CDC42BPA) of 104% and an Activity% (OSR1/OXSR1; 1 μM) of 102.40%. For the same molecule, the activity at 1 µM (OSR1/OXSR1) was 105%, the Activity% (CK2a; 1 μM) was 90.49% and the activity at 1 µM (CK2a) was 95.2%. It also gave an Activity% (IRAK4; 1 μM) of 85.85%, an activity at 1 µM (IRAK4) of 86.9% and an Activity% (ERBB4/HER4; 1 μM) of 99.02%. The activity at 1 µM (ERBB4/HER4) was 99.7%, the Activity% (PKCd; 1 μM) was 100.58% and the activity at 1 µM (PKCd) was 101%. For the same molecule, the Activity% (LATS2; 1 μM) was 93.96%, the activity at 1 µM (LATS2) was 94.4% and the Activity% (CDK18/cyclin Y (PCTK3); 1 μM) was 106.96%. It also gave an activity at 1 µM (CDK18/cyclin Y (PCTK3)) of 107%, an Activity% (AXL; 1 μM) of 98.35% and an activity at 1 µM (AXL) of 98.8%. For the same molecule, the Activity% (CK1a1; 1 μM) was 94.49%, the activity at 1 µM (CK1a1) was 97% and the Activity% (NEK2; 1 μM) was 112.29%. For the same molecule, the activity at 1 µM (NEK2) was 115%, the Activity% (NEK7; 1 μM) was 103.37% and the activity at 1 µM (NEK7) was 105%. For the same molecule, the Activity% (PAK3; 1 μM) was 99.63%, the activity at 1 µM (PAK3) was 103% and the Activity% (LCK; 1 μM) was 62.75%. For the same molecule, the activity at 1 µM (LCK) was 62.9%, the Activity% (NEK1; 1 μM) was 95.75% and the activity at 1 µM (NEK1) was 96%. The Activity% (VRK2; 1 μM) was 93.34%, the activity at 1 µM (VRK2) was 94.4% and the Activity% (TESK1; 1 μM) was 111.93%. For the same molecule, the activity at 1 µM (TESK1) was 118%, the Activity% (CAMK1a; 1 μM) was 98.23% and the activity at 1 µM (CAMK1a) was 98.6%. It also gave an Activity% (PAK1; 1 μM) of 101.03%, an activity at 1 µM (PAK1) of 102% and an Activity% (PKCg; 1 μM) of 95.02%. For the same molecule, the activity at 1 µM (PKCg) was 95.8%, the Activity% (DCAMKL1; 1 μM) was 87.59% and the activity at 1 µM (DCAMKL1) was 87.7%. For the same molecule, the Activity% (TYRO3/SKY; 1 μM) was 97.95%, the activity at 1 µM (TYRO3/SKY) was 99.6% and the Activity% (CK1g3; 1 μM) was 87.02%. The activity at 1 µM (CK1g3) was 87.1%, the Activity% (PEAK1; 1 μM) was 100.13% and the activity at 1 µM (PEAK1) was 103%. The Activity% (PKCepsilon; 1 μM) was 98.93%, the activity at 1 µM (PKCepsilon) was 99.5% and the Activity% (FGFR4; 1 μM) was 89.46%. For the same molecule, the activity at 1 µM (FGFR4) was 89.9%, the Activity% (GRK6; 1 μM) was 99.89% and the activity at 1 µM (GRK6) was 102%. It also gave an Activity% (p70S6Kb/RPS6KB2; 1 μM) of 95.50%, an activity at 1 µM (p70S6Kb/RPS6KB2) of 98.8% and an Activity% (WEE1; 1 μM) of 94.05%. It also gave an activity at 1 µM (WEE1) of 95.7%.
